Assay results reported in patent publication US8119684B2, “Thiophene derivatives for up-regulating HLA-DM activity” (Dana-Farber Cancer Institute, Inc., priority 2003, dated 2012).

Key:
[1] = target: T1, HLA-DM catalyzed peptide exchange on HLA-DR2 (Homo sapiens, UniProt P28067+P28068); experiment: Dissociation assay: MBP peptide dissociating from HLA-DR2 in the presence of HLA-DM and 100-fold excess unlabeled MBP; assay type: biochemical; details: FIG. 5, F15 versus DMSO
T1 construct: made in house; host or cells: HLA-DM: S2 insect cells; HLA-DR2b: COS cells; peptides synthesized by New England Peptide, Inc
T1 sequence (P28067 27-233 limits assumed): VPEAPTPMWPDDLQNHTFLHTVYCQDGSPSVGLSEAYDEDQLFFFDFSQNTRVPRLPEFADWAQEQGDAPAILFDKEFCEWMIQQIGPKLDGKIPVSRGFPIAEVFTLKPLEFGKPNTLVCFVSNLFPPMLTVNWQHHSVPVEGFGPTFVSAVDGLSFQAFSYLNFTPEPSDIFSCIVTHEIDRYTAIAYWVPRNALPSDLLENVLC
T1 sequence (P28068 19-218 limits assumed): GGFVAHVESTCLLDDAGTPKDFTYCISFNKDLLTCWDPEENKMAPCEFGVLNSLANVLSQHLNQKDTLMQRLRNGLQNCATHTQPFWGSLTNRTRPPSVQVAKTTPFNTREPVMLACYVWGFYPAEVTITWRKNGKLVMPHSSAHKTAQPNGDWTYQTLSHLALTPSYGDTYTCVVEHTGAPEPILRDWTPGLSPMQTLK
Description: FIG. 5b illustrates graphically a dissociation assay of MBP peptide dissociating from HLA-DR2 in the presence of HLA-DM and 100-fold excess unlabeled MBP in the peptide for both F15 and DMSO;
FIGS. 5a and 5b graphically illustrate the dose reponse curve for compound F15 for disassociation (5a) and association (5b) assays.

[2] = target: T1, HLA-DM catalyzed peptide exchange on HLA-DR2; experiment: Antigen Presentation Screen: fluorescence polarization association assay of Alexa 488-labeled MBP 85-99 binding to HLA-DR2b/CLIP in the presence of HLA-DM; assay type: biochemical
Description: In one detailed aspect of the invention, an assay is described below for detecting and monitoring HLA-DM catalyzed peptide exchange. In particular, the kinetics of peptide exchange can be evaluated and the effects on such kinetics of test compounds can be evaluated. A labeled peptide, such as a fluorescently labled MBP peptide, can be visualized binding to isolated HLA-DR2 in the presence of HLA-DM by Fluorescence Polarization (FP). FP can detect the motion of a fluorescently labeled peptide such as MBP (85-99). The FP detected increases when a fluorescently labeled peptide binds to a receptor. This assay may allow peptide binding to HLA-DR2 to be monitored in real time without interrupting the reaction. In this manner, a number of readings can be made at different times during a single assay. This can provide information about the rate of transfer of a peptide, leading to the identification of compounds that increase or decrease the rate of peptide exchange. It may also lead to the identification of compounds that decrease the rate of peptide exchange by directly preventing peptide binding to MHC class II.
In the assay described below (Antigen Presentation Screen), Fluorescence Polarization (FP) can be used to monitor the kinetics, including the exchange rate, of exchanging CLIP for myelin basic protein (MBP) peptide on isolated HLA-DR2. MBP peptide consisting of amino acids 85-99 of Myelin Basic Protein is labeled with the fluorescent dye Alexa 488 at the P5 position. The CLIP may be unlabled. A system of isolated HLA-DR2 containing CLIP and labeled MBP peptide are incubated in the presence of HLA-DM. The system may be exposed to test compounds and FP can be used to measure the rate of exchange of CLIP for MBP for each test compound, including a control. A change in fluorescence polarization is monitored and/or recorded using a 485 nm excitation filter and a 530 nm emission filter in a LJL Analyst. Fluorescence readings taken at time intervals can indicate how fast CLIP is being exchanged for MBP in the presence of HLA-DM.
Proteins: HLA-DR2b containing the CLIP peptide in PBS buffer synthesized by COS cells with covalently linked CLIP peptide. The linker is cut with the addition of 25 U/ml of Thrombin (Novagen 69671) (2 hr incubation at 37° C.) and blocked with Pefablock (Roche 1429-868).
HLA-DM in PBS buffer, synthesized in S2 insect cells. Purified on a anti-FLAG column with a high pH elution (50 mM CAPS pH 11.5)
Peptides: MBP 85-99 (Alexa 488 at P5 position) in H2O
• 1. Add 0.4 μl of library compound in 100% DMSO to wells (see FIG. 7) containing HLA-DR2b. (Library compounds at 50 mM). Also add 0.4 μl DMSO to all control wells during this step. This step can be carried out days before screening commences. • 2. Add 35 μl of 50 mM Citrate pH5.2/150 mM NaCl buffer to wells M23, […], N23 and N24. Add 40 μl of 50 mM Citrate pH 5.2/150 mM NaCl buffer to wells O23, O24, P23 and P24. Add 35 μl of 114 nM HLA-DR2b in 50 mM Citrate pH 5.2/150 mM NaCl buffer to appropriate wells in 384 well plate as shown below in FIG. 9. Make 114 nM HLA-DR2b solution fresh and keep cold until just before addition of library compounds • 5. By hand add 1 μl of MBP 85-99 (unlabeled) titration to control wells as described below in FIG. 10. • 6. Mix HLA-DR2b and compound by shaking with plate shaker for 1 minute. • 7. Incubate HLA-DR2b and compound for 30 minutes at room temperature. • 8. By hand add 5 μl of 80 nM MBP 85-99 (Alexa 488 at P5 position) to control wells (FIG. 11) as described below while plate is incubating at room temperature. • 9. During 30 minute incubation read plates for Fluorescent Intensity using the Analyst (Molecular Devices) Parameters described below. This step is optional if Fluorescent Intensity references have already been read for the compounds being screened. • 10. Add 5 p. 1 of MBP/DM mix (80 nM MBP 85-99 (Alexa 488 at P5 position)/800 nM HLA-DM in 50 mM Citrate pH 5.2/150 mM NaCl buffer) to begin reaction. […]

N#CC1=C(SC2CCCCC2)CC(C(=O)O)=C1c1ccc(Cl)cc1 [Compound F15]
dose response curve, dissociation assay [1]: substantial effect even at very low concentrations | increase in binding (FP) compared to the control ([2]; 30 minute sampling time, FIG. 3): about 25% | acceleration of peptide exchange over the control (factor) ([2]; F15 at 10 uM, FIG. 4): 3 | Vmax (initial velocity of MBP/HLA-DR2 binding) ([2]; F15 at 10 uM, increasing levels of DR2b, HLA-DM present, FIG. 4, control Vmax 0.02521): 0.07611 | dose response curve, association assay ([2]; FIG. 5, F15 versus DMSO): substantial effect even at very low concentrations | concentration at which a significant increase in the rate of peptide exchange is seen (as low as) ([2]; association assay, FIG. 3, various concentrations of F15): 1 µM | total amount of peptide exchange compared to the control ([2]; over a 6 hour period, FIG. 3): about equal
